# Measured values from US12252524B2, “GIP/GLP1 co-agonist compounds” (Eli Lilly and Company, priority 2018, dated 2025).
# Numbered stars: 1 amine (or outer) side, 2 acyl side, 3 side chain; on linkers, the order of the positions; unused ones are H or OH. Square brackets hold non-standard residues; d marks the D form. Side chains are listed from the residue outwards. Peptide text beside a SMILES is read from it. * marks the point of attachment. C20 diacid = O=C(O)CCCCCCCCCCCCCCCCCCC(=O)*; γGlu = O=C(O)[C@H](CCC(=O)[*:2])N[*:1]; AEEA = NCCOCCOCC(=O)O; Aib = CC(C)(N)C(=O)O
# Columns and labels:
# human Gcg receptor = biological target: T1, human Gcg receptor (Homo sapiens, UniProt P47871); assay: [125I]-Glucagon binding (SPA), human Gcg receptor; conditions: read-out: hGLcgR Ki, nM (SEM, n)
# T1 construct: expressed in transfected cells; crude membranes
# T1 sequence (P47871 26-477): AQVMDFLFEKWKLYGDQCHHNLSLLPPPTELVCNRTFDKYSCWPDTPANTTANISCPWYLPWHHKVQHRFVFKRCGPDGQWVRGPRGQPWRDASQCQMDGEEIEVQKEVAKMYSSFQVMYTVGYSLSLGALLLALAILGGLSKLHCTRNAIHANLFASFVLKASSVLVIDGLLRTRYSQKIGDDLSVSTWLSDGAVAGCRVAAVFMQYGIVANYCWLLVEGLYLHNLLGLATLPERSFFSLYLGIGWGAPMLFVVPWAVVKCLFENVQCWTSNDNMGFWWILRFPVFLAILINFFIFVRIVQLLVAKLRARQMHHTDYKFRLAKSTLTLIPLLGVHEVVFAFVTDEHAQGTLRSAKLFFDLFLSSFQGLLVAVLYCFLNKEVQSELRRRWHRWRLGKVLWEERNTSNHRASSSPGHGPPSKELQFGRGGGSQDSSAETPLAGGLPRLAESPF
# How it was run: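 Scintillation counts are taken after membranes and WGA beads incubate and settle for 12 hours at room temperature. Buffer is 25 mM HEPES, pH 7.4, with CaCl2, MgCl2, bacitracin and Tween-20. Ki values, from four-parameter IC50 fits, are geometric means over independent days.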
# [1] = biological target: human GLP-1 receptor (GLP-1R) (Homo sapiens, UniProt P43220); assay: cAMP pharmacological functional assay in presence of casein, hGLP-1R; type: cell-based; conditions: HEK293 cells expressing hGLP-1R, 0.1% Casein, geometric mean; read-out: hGLP1R cAMP Rel EC50 nM (SEM, n)
# Chain of human GLP-1 receptor (GLP-1R) (P43220 24-463): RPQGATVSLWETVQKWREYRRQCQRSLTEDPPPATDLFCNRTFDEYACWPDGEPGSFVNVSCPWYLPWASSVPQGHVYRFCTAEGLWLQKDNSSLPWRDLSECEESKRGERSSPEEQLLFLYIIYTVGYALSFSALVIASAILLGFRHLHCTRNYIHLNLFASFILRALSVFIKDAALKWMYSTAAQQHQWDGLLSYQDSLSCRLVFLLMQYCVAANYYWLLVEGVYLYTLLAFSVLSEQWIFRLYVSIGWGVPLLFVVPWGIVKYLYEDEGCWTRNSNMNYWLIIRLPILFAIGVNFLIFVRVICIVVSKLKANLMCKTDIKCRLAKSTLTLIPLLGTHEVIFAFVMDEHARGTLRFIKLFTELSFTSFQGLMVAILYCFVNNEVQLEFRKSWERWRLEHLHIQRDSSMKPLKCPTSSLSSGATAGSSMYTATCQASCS
# human GLP-1R = human GLP-1R (Homo sapiens, UniProt P43220); assay: [125I]-GLP-1 binding (SPA), human GLP-1 receptor; parameters: expressed in transfected cells; crude membranes; conditions: read-out: hGLP1R Ki, (nM) (SEM, n)
# Chain of human GLP-1R (P43220 24-463): as above
# How it was run: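 Frozen cell pellets are lysed on ice in hypotonic Tris buffer, pH 7.5, homogenized, and centrifuged to a membrane pellet resuspended at about 1 to 3 mg/mL. Binding is then measured in HEPES-based buffer at pH 7.4, and curves are fitted to give IC50 and Ki.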
# [2] = biological target: T2, gastric inhibitory peptide receptor (GIPR) (Homo sapiens, UniProt P48546); assay: cAMP pharmacological functional assay in presence of casein, hGIPR; type: cell-based; conditions: HEK293 cells expressing hGIPR, 0.1% Casein, geometric mean; read-out: hGIPR cAMP Rel EC50 nM (SEM, n)
# T2 sequence (P48546 22-466): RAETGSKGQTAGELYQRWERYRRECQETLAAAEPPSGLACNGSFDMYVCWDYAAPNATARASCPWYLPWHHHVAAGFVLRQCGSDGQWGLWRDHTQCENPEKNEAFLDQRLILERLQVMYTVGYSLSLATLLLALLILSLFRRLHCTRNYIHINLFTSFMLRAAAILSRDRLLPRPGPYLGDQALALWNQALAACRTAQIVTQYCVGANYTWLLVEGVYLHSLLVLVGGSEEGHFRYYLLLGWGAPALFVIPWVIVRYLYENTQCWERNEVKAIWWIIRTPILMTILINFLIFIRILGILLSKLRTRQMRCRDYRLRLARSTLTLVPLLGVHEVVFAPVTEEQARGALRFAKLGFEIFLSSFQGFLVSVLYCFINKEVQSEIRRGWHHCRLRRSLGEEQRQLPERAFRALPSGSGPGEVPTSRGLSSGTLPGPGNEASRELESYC
# human GIP receptor = biological target: T3, human GIP receptor (Homo sapiens, UniProt P48546); assay: [125I]-GIP binding (SPA), human GIP receptor; conditions: read-out: hGIPR Ki, nM (SEM, n)
# T3 construct: expressed in transfected cells; crude membranes
# T3 sequence (P48546 22-466): T2 sequence (P48546 22-466)
SMILES,Ki (human Gcg receptor) [nM],EC50 [1] [nM],Ki (human GLP-1R) [nM],EC50 [2] [nM],Ki (human GIP receptor) [nM]
CC[C@H](C)[C@H](NC(=O)[C@H](CC(C)C)NC(=O)[C@H](Cc1ccc(O)cc1)NC(=O)[C@H](CCC(=O)O)NC(=O)[C@@H](NC(=O)[C@H](Cc1ccccc1)NC(=O)[C@H](C)NC(=O)C(C)(C)NC(=O)[C@H](CCC(N)=O)NC(=O)[C@H](C)NC(=O)[C@H](CCCCNC(=O)COCCOCCNC(=O)COCCOCCNC(=O)CC[C@H](NC(=O)CCCCCCCCCCCCCCCCCCC(=O)O)C(=O)O)NC(=O)[C@H](CCCCN)NC(=O)[C@H](CC(=O)O)NC(=O)[C@H](CC(C)C)NC(=O)[C@H](CC(C)C)NC(=O)[C@@H](NC(=O)[C@H](CO)NC(=O)[C@H](Cc1ccc(O)cc1)NC(=O)[C@H](CC(=O)O)NC(=O)[C@H](CO)NC(=O)[C@@H](NC(=O)[C@H](Cc1ccccc1)NC(=O)[C@@H](NC(=O)CNC(=O)[C@H](CCC(=O)O)NC(=O)[C@H](C)NC(=O)[C@@H](Cc1ccc(O)cc1)NC(C)=O)[C@@H](C)O)[C@@H](C)O)[C@@H](C)CC)[C@@H](C)CC)C(=O)N[C@@H](CCC(=O)O)C(=O)NCC(=O)NCC(=O)N1CCC[C@H]1C(=O)N[C@@H](CO)C(=O)N[C@@H](CO)C(=O)NCC(=O)N[C@@H](C)C(=O)N1CCC[C@H]1C(=O)N1CCC[C@H]1C(=O)N1CCC[C@H]1C(=O)N[C@@H](CO)C(N)=O [Example 79],429,2.02,2.69,0.0732,0.0313
CC[C@H](C)[C@H](NC(=O)[C@H](CC(C)C)NC(=O)[C@H](Cc1ccc(O)cc1)NC(=O)[C@H](CCC(=O)O)NC(=O)[C@@H](NC(=O)[C@H](Cc1ccccc1)NC(=O)[C@H](C)NC(=O)C(C)(C)NC(=O)[C@H](CCC(N)=O)NC(=O)[C@H](C)NC(=O)[C@H](CCCCNC(=O)COCCOCCNC(=O)COCCOCCNC(=O)CC[C@H](NC(=O)CCCCCCCCCCCCCCCCCCC(=O)O)C(=O)O)NC(=O)[C@H](CCCCN)NC(=O)[C@H](CC(=O)O)NC(=O)[C@H](CC(C)C)NC(=O)[C@H](CC(C)C)NC(=O)[C@@H](NC(=O)[C@@H](CO)NC(=O)[C@H](Cc1ccc(O)cc1)NC(=O)[C@H](CC(=O)O)NC(=O)[C@H](CO)NC(=O)[C@@H](NC(=O)[C@H](Cc1ccccc1)NC(=O)[C@@H](NC(=O)CNC(=O)[C@H](CCC(=O)O)NC(=O)C(C)(C)NC(=O)[C@@H](N)Cc1ccc(O)cc1)[C@@H](C)O)[C@@H](C)O)[C@@H](C)CC)[C@@H](C)CC)C(=O)N[C@@H](CCC(=O)O)C(=O)NCC(=O)NCC(=O)N1CCC[C@H]1C(=O)N[C@@H](CO)C(=O)N[C@@H](CO)C(=O)NCC(=O)N[C@@H](C)C(=O)N1CCC[C@H]1C(=O)N1CCC[C@H]1C(=O)N1CCC[C@H]1C(=O)N[C@@H](CO)C(N)=O [Example 81],344,1.29,2.88,0.428,0.198
CC[C@@H](C)[C@@H](NC(=O)[C@H](CO)NC(=O)[C@H](Cc1ccc(O)cc1)NC(=O)[C@H](CC(=O)O)NC(=O)[C@H](CO)NC(=O)[C@@H](NC(=O)[C@H](Cc1ccccc1)NC(=O)[C@@H](NC(=O)CNC(=O)[C@H](CCC(=O)O)NC(=O)C(C)(C)NC(=O)[C@@H](N)Cc1ccc(O)cc1)[C@@H](C)O)[C@@H](C)O)C(=O)N[C@@H](CC(C)C)C(=O)N[C@@H](CC(C)C)C(=O)N[C@@H](CC(=O)O)C(=O)N[C@@H](CCCCN)C(=O)N[C@@H](CCCCNC(=O)COCCOCCNC(=O)COCCOCCNC(=O)CC[C@H](NC(=O)CCCCCCCCCCCCCCCCCCC(=O)O)C(=O)O)C(=O)N[C@@H](C)C(=O)N[C@@H](CCC(N)=O)C(=O)NC(C)(C)C(=O)N[C@@H](C)C(=O)N[C@@H](Cc1ccccc1)C(=O)N[C@H](C(=O)N[C@@H](CCC(=O)O)C(=O)N[C@@H](Cc1ccc(O)cc1)C(=O)N[C@@H](CC(C)C)C(=O)N[C@H](C(=O)N[C@@H](CCC(=O)O)C(=O)NCC(=O)NCC(=O)N1CCC[C@H]1C(=O)N[C@@H](CO)C(=O)N[C@@H](CO)C(=O)NCC(=O)N[C@@H](C)C(=O)N1CCC[C@H]1C(=O)N1CCC[C@H]1C(=O)N1CCC[C@H]1C(=O)N[C@@H](CO)C(N)=O)[C@@H](C)CC)[C@@H](C)CC [Example 82],> 1060,26.1,6.82,24.3,14.9
CC[C@H](C)[C@H](NC(=O)[C@H](Cc1ccccc1)NC(=O)[C@H](C)NC(=O)C(C)(C)NC(=O)[C@H](CCC(N)=O)NC(=O)[C@H](C)NC(=O)[C@H](CCCCNC(=O)COCCOCCNC(=O)COCCOCCNC(=O)CC[C@H](NC(=O)CCCCCCCCCCCCCCCCCCC(=O)O)C(=O)O)NC(=O)[C@H](CCCCN)NC(=O)[C@H](CC(=O)O)NC(=O)[C@H](CC(C)C)NC(=O)[C@H](CC(C)C)NC(=O)[C@@H](NC(=O)[C@H](CO)NC(=O)[C@H](Cc1ccc(O)cc1)NC(=O)[C@H](CC(=O)O)NC(=O)[C@H](CO)NC(=O)[C@@H](NC(=O)[C@H](Cc1ccccc1)NC(=O)[C@@H](NC(=O)CNC(=O)[C@H](CCC(=O)O)NC(=O)C(C)(C)NC(=O)[C@@H](N)Cc1ccc(O)cc1)[C@@H](C)O)[C@@H](C)O)[C@@H](C)CC)C(=O)N[C@@H](CCC(=O)O)C(=O)N[C@@H](Cc1ccc(O)cc1)C(=O)N[C@@H](CC(C)C)C(=O)N[C@H](C(=O)N[C@H](CCC(=O)O)C(=O)NCC(=O)NCC(=O)N1CCC[C@H]1C(=O)N[C@@H](CO)C(=O)N[C@@H](CO)C(=O)NCC(=O)N[C@@H](C)C(=O)N1CCC[C@H]1C(=O)N1CCC[C@H]1C(=O)N1CCC[C@H]1C(=O)N[C@@H](CO)C(N)=O)[C@@H](C)CC [Example 83],320,0.387,7.1,0.182,0.142
CC[C@H](C)[C@H](NC(=O)[C@H](CC(C)C)NC(=O)[C@H](Cc1ccc(O)cc1)NC(=O)[C@@H](CCC(=O)O)NC(=O)[C@@H](NC(=O)[C@H](Cc1ccccc1)NC(=O)[C@H](C)NC(=O)C(C)(C)NC(=O)[C@H](CCC(N)=O)NC(=O)[C@H](C)NC(=O)[C@H](CCCCNC(=O)COCCOCCNC(=O)COCCOCCNC(=O)CC[C@H](NC(=O)CCCCCCCCCCCCCCCCCCC(=O)O)C(=O)O)NC(=O)[C@H](CCCCN)NC(=O)[C@H](CC(=O)O)NC(=O)[C@H](CC(C)C)NC(=O)[C@H](CC(C)C)NC(=O)[C@@H](NC(=O)[C@H](CO)NC(=O)[C@H](Cc1ccc(O)cc1)NC(=O)[C@H](CC(=O)O)NC(=O)[C@H](CO)NC(=O)[C@@H](NC(=O)[C@H](Cc1ccccc1)NC(=O)[C@@H](NC(=O)CNC(=O)[C@H](CCC(=O)O)NC(=O)C(C)(C)NC(=O)[C@@H](N)Cc1ccc(O)cc1)[C@@H](C)O)[C@@H](C)O)[C@@H](C)CC)[C@@H](C)CC)C(=O)N[C@@H](CCC(=O)O)C(=O)NCC(=O)NCC(=O)N1CCC[C@H]1C(=O)N[C@@H](CO)C(=O)N[C@@H](CO)C(=O)NCC(=O)N[C@@H](C)C(=O)N1CCC[C@H]1C(=O)N1CCC[C@H]1C(=O)N1CCC[C@H]1C(=O)N[C@@H](CO)C(N)=O [Example 84],> 1100,0.374,10.2,0.0915,0.143
CC[C@H](C)[C@H](NC(=O)[C@H](CC(C)C)NC(=O)[C@H](Cc1ccc(O)cc1)NC(=O)[C@H](CCC(=O)O)NC(=O)[C@@H](NC(=O)[C@H](Cc1ccccc1)NC(=O)[C@H](C)NC(=O)C(C)(C)NC(=O)[C@H](CCC(N)=O)NC(=O)[C@H](C)NC(=O)[C@H](CCCCNC(=O)COCCOCCNC(=O)COCCOCCNC(=O)CC[C@H](NC(=O)CCCCCCCCCCCCCCCCCCC(=O)O)C(=O)O)NC(=O)[C@H](CCCCN)NC(=O)[C@H](CC(=O)O)NC(=O)[C@H](CC(C)C)NC(=O)[C@H](CC(C)C)NC(=O)[C@@H](NC(=O)[C@H](CO)NC(=O)[C@H](C)NC(=O)[C@H](CC(=O)O)NC(=O)[C@H](CO)NC(=O)[C@@H](NC(=O)[C@H](Cc1ccccc1)NC(=O)[C@@H](NC(=O)CNC(=O)[C@H](CCC(=O)O)NC(=O)C(C)(C)NC(=O)[C@@H](N)Cc1ccc(O)cc1)[C@@H](C)O)[C@@H](C)O)[C@@H](C)CC)[C@@H](C)CC)C(=O)N[C@@H](CCC(=O)O)C(=O)NCC(=O)NCC(=O)N1CCC[C@H]1C(=O)N[C@@H](CO)C(=O)N[C@@H](CO)C(=O)NCC(=O)N[C@@H](C)C(=O)N1CCC[C@H]1C(=O)N1CCC[C@H]1C(=O)N1CCC[C@H]1C(=O)N[C@@H](CO)C(N)=O [Example 85] (H-Y[Aib]EGTFTSDASILLDKK([AEEA-AEEA-γGlu-C20 diacid])AQ[Aib]AFIEYLIEGGPSSGAPPPS-NH2),> 894,0.0518,1.87,1.67,0.621
